“Also recorded” adds a separate entry of the source.
Columns and labels:
proteasome genes [1] = details: Burington et al., 2009; cited from earlier work
proteasome genes [2] = assay: Proteasome gene expression changes after short-term exposure (test-dosing) to bortezomib, dexamethasone, thalidomide, melphalan; format: in vivo, human; details: for proteasome gene expression change after short-term exposure: test-dosing in myeloma patients
Source text: In earlier studies, pharmacogenomics was used to identify genes altered by short-term exposure of therapy-naïve cases to thalidomide and dexamethasone. Little to no overlap was found in the genes altered by these agents with those altered by bortezomib.

SMILES | hyperactivation of proteasome genes after short-term drug (proteasome genes [1]) | changes for some proteasome genes (e.g. PSMB3 and PSMD14) compared to the changes after bortezomib (proteasome genes [2]; FIG. 10, short-term exposure) | change of PSMB2 and PSMD14 compared to the changes after bortezomib (proteasome genes [2]; melphalan test-dosing, Total Therapy 4) | proteasome gene expression change after short-term exposure (proteasome genes [2])
Nc1cccc2c1CN(C1CCC(=O)NC1=O)C2=O (stereo not drawn) [lenalidomide] | not associated with hyperactivation of proteasome genes |  |  | 
N[C@@H](Cc1ccc(N(CCCl)CCCl)cc1)C(=O)O [melphalan] |  | reversed | inversely changed | most proteasome genes did not change
O=C1CCC(N2C(=O)c3ccccc3C2=O)C(=O)N1 (stereo not drawn) [thalidomide] | not associated with hyperactivation of proteasome genes |  |  | complete lack of activation; also recorded: did not change
